Literature values in patent US20020128208A1, “Nonpeptide agonists and antagonists of vasopressin receptors” (priority 2000, published 2002).

target: V2, V1a or both receptor; conditions: prior-art antagonists disclosed by other companies; receptor subtype and species not stated

Compound	Ki
Cc1ccc(F)cc1C(=O)Nc1ccc(C(=O)N2Cc3cccn3Cc3ccccc32)c(Cl)c1 [VPA-985]	0.5 nM
Cc1ccc(F)cc1C(=O)Nc1ccc(C(=O)N2Cc3cccn3Cc3ccccc32)c(Cl)c1 [YM35087]	1.8 nM
CC(C)(C)NC(=O)c1ccc(S(=O)(=O)N2C(=O)C3(CCC(OCCN4CCOCC4)CC3)c3ccccc32)cc1 (stereo not shown) [SR121463A]	1.42 nM
Cc1ccccc1C(=O)Nc1ccc(C(=O)N2CCCC(N(C)C)c3ccccc32)cc1 (stereo not shown) [OPC-31260]	21.7 nM
